Experimental data as given in patent US20040002441A1, “Recombination modulators and methods for producing and using the same” (priority 2000, published 2004).
Where no end group is shown, it is not given here.

Legend:
vaccinia topoisomerase = target: T1, vaccinia topoisomerase (Vaccinia virus, UniProt P68698); test: Gel shift of noncovalent topoisomerase-DNA complex (60-bp duplex with CCCTT site); assay type: binding; conditions: 0.72 to 1.8 μM peptide
T1 construct: made in house; host or cells: Escherichia coli BL21 infected with bacteriophage λCE6
From the text: To test whether the peptide interferes with the noncovalent association of topoisomerase with the DNA, we assayed the effects of the peptides on the binding of vaccinia topoisomerase to a radiolabeled 60-bp duplex DNA containing a single central CCCTT recognition site. In contrast to the suicide substrate, for which all bound enzymes are trapped in the covalent state, only about 20% of the fully double-stranded DNA molecules that are bound will be linked covalently to the protein (Wittschieben and Shuman, 1997).

Xba I = test: Restriction enzyme assay on pUC19; assay type: biochemical; conditions: Xba I (TCTAGA)
Method: (§1) Restriction enzyme assays. Restriction digests were performed as specified and the products were separated on 0.8% agarose gels electrophoresed at 80-90V in 1× Tris borate EDTA buffer. Gels were photographed, scanned and quantitated using NIH Image v.1.55, as recommended in the instruction manual.

Nde I = test: Restriction enzyme assay on pUC19; assay type: biochemical; conditions: Nde I (CATATG)
Method: as §1

Pst I = target: T2, Pst I (Providencia stuartii, UniProt P00640); test: Restriction enzyme assay on pUC19; assay type: biochemical
T2 construct: purchased New England BioLabs
T2 sequence (P00640 1-326): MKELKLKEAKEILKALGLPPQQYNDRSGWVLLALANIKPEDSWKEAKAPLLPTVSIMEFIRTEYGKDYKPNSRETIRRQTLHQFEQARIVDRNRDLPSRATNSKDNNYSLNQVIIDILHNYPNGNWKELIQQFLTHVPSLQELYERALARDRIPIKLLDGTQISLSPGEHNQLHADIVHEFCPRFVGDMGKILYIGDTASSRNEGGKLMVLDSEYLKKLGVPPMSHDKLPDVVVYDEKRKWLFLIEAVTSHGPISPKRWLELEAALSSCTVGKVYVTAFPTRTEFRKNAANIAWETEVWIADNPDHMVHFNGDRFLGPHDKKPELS
Method: as §1

Hind III = target: T3, Hind III (Haemophilus influenzae, UniProt P43870); test: Restriction enzyme assay on pUC19; assay type: biochemical
T3 construct: purchased New England BioLabs
Method: as §1

[1] = target: T4, bacteriophage λ Integrase (Int) (Escherichia phage lambda, UniProt P03700); test: Int-mediated straight-L recombination; assay type: biochemical
T4 sequence (P03700 1-356): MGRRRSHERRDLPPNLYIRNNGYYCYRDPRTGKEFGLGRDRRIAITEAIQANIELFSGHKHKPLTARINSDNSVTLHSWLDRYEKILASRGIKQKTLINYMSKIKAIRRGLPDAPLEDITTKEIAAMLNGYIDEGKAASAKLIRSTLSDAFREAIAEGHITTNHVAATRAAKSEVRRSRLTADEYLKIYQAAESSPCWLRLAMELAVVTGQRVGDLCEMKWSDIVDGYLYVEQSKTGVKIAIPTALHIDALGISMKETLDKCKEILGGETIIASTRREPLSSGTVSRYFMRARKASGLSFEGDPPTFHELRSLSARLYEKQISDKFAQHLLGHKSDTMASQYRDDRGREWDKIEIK
Method: (§2) FIG. 11 depicts effect of peptide KWWCRW (diamonds) and peptide KWWWRW (squares) on the remaining 3 pathways of Int-mediated recombination. Recombination extents were normalized to the amount of recombination in untreated reactions and expressed as relative % recombination. A. Effect of peptides on integrative recombination (IC50 values for both peptides are roughly 0.2 μM). Reactions were assembled as for bent-L recombination except that they were incubated at room temperature, the substrates were a supercoiled plasmid (4.8 kb) carrying attP and ^32P labeled 91 bp PCR fragment encoding attB. […] The recombination substrates were PCR fragments encoding the attL (^32P-labeled) and attR sites. Reactions contained 50 NM Xis in addition to Int and IHF (37 nM), as well as 100 ng salmon sperm DNA, and were incubated at room temperature. C. Effect of peptides on straight-L recombination (IC50 values for peptide KWWCRW is 0.06 μM, while for peptide KWWWRW is slightly over 0.1 μM). Reactions were assembled as for bent-L recombination except that they were incubated at room temperature; the substrates were two PCR fragments, one of which was ^32P-labeled and 187 bp, the other of which was unlabeled and 496 bp.
(§3) Int Assays. […] Dried gels were visualized and quantitated using a Molecular Dynamics PhosphorImager.

[2] = target: restriction enzymes with unique sites in pUC19; test: Restriction enzyme assays, all enzymes tested; assay type: biochemical
Method: as §1

[3] = tested on: T4 topoisomerase (type II); test: T4 topoisomerase DNA relaxation assay; assay type: biochemical, bacteriophage T4; conditions: for effect on DNA relaxation: 100 μM peptide
Method: T4 topoisomerase assays. Reactions were performed as described (Huff and Kreuzer, 1990) using 30 or 60 ng of enzyme and 200 ng of supercoiled pUC19 per reaction. The products were electrophoresed on 0.8% agarose gels at 40V in 0.5× Tris borate EDTA buffer for about 6 hours. The gel was then stained with EtBr for viewing.

[4] = target: T5, bacteriophage λ Integrase (Int) (Escherichia phage lambda, UniProt P03700); test: Int-mediated integrative recombination; assay type: biochemical; conditions: IC50, inhibition of integrative recombination, integration pathway
T5 sequence (P03700 1-356): T4 sequence (P03700 1-356)
T5 sequence (P0A6X7 1-99 partner): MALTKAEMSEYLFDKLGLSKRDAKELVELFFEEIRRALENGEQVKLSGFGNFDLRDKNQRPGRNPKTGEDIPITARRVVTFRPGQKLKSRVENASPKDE
T5 sequence (P0A6Y1 1-94 partner): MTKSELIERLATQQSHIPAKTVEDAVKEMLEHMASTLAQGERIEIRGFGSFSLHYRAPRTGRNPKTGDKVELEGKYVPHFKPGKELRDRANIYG
Method: as §2, §3

KWWCRW-NH2 [Peptide 59, KWWCRW] was tested. Which “effect on formation of the noncovalent topoisomerase-DNA complex” value (vaccinia topoisomerase) did it give?
Its value is “did not inhibit”.

What about the IC50 (Xba I) of the same substance?
Its IC50 is 37 µM.

And the IC50 (Nde I)?
Its IC50 is 37 µM.

What about the IC50 (Pst I) of the same substance?
Its IC50 is 44 µM.

And the IC50 (Hind III)?
Its IC50 is 48 µM.

What about the IC50 [1] of the same substance?
Its IC50 is 0.06 µM.

What about the IC50 [2] of the same substance?
Its IC50 is roughly 40 µM.

What about the “effect on DNA relaxation” value [3] of the same substance?
The value was “blocked it completely”.

And the IC50 ([3]; supercoiled pUC19)?
Its IC50 is 40 µM.

And the IC50 [4]?
The IC50 was 0.3 µM.

With KWWWRW-NH2 [Peptide 56, KWWWRW] as the substance, how does the IC50 [1] read?
Its IC50 is greater than 0.1 µM.

And the IC50 [4]?
Its IC50 is roughly 0.2 µM.

Which “effect on DNA relaxation” value [3] does the source give for WKHYNY-NH2 [Peptide 52, WKHYNY] here?
The value was “no effect”.
